Measured values as given in US6166067A, “Inhibitors of cholesterol-biosynthesis for reducing the cholesterol content of poultry eggs” (priority 1998, dated 2000).

Assays:
[1] = set-up: species or system laying hens; conditions: in vivo
Protocol: (§1) Tocopherols and tocotrienols in the yolk pools were determined by HPLC. To do this, the sample is hydrolyzed in aqueous alcoholic medium and extracted several times with diethyl ether. Quantification takes place by comparison with external standards.
(§2) Another feeding experiment was carried out in analogy to Example 1. In this case the intention was to test not only α- and δ-tocotrienol but also a tocotrienol precursor (4-oxo-γ-tocotrienol) and other terpenoids such as farnesyl acetate, perillyl alcohol, linalool and β-ionone, in laying hens.
(§3) The trial protocol corresponds to that in Example 1 but with the following amendments:
(§4) The number of birds comprised 8 hens per treatment.
(§5) In addition, α-, δ- and 4-oxo-γ-tocotrienol in yolk and liver (treatments 1 to 7) were determined.

[2] = set-up: species or system laying hens; conditions: in vivo; remark: listed apart in the source
Protocol: as §1, §2, §3
(§6) 4 birds in each case from the control and the high dosages were sacrificed at the end of the trial. After taking blood to obtain plasma, the birds were completely exsanguinated. The liver was then removed and deep frozen until analyzed.
as §5

[3] = tested on: cholesterol content of poultry eggs; conditions: literature (Huggett et al.; Beyer and Jensen); cited from earlier work
triglycerides in yolk = test: Triglycerides in egg yolk, laying-hen feeding trial (Example 2); format: in vivo, laying hens; conditions: control 170.4
Protocol: (§7) The triglycerides are determined enzymatically via their glycerol content. The triglycerides are cleaved enzymatically by the enzymes lipase and esterase. The resulting glycerol is phosphorylated by ATP to glycerol 3-phosphate in the reaction catalyzed by glycerol kinase GK.
as §2, §3, §4
(§8) Triglyceride and cholesterol were determined in 4 independent yolk pools(each from 6 eggs) and plasma.

cholesterol in yolk = test: Cholesterol in egg yolk, laying-hen feeding trial (Example 2); format: in vivo, laying hens; conditions: for Cholesterol, yolk: control 10.23
Description: (§9) For the cholesterol determination, the cholesterol esters were cleaved to cholesterol and fatty acid by the action of cholesterol esterase. Free cholesterol is converted by atmospheric oxygen with the involvement of cholesterol oxidase into Δ^4 -cholestenone and hydrogen peroxide. The resulting hydrogen peroxide forms with 4-aminophenazone and phenol through the catalytic action of peroxidase a red dye whose intensity of color is directly proportional to the cholesterol concentration and can be measured at 500 to 550 nm.
as §2, §3, §4, §8

plasma cholesterol = test: Cholesterol in plasma, laying-hen feeding trial (Example 2); format: in vivo, laying hens; conditions: 500 mg/kg feed; control 125.3
Description: as §9, §2, §3, §4, §6, §8

plasma triglyceride = test: Triglycerides in plasma, laying-hen feeding trial (Example 2); format: in vivo, laying hens; conditions: 500 mg/kg feed; control 2496
Protocol: as §7, §2, §3, §4, §6, §8

[4] = tested on: triglycerides in the yolk; test: Triglycerides in egg yolk, laying-hen feeding trial (Example 1); format: in vivo, laying hens (Lohmann Selected Leghorn); conditions: both dosages (1500 and 15000 mg/kg feed); 4 weeks
Protocol: At the start of the trial, the laying hens (Lohmann Selected Leghorn) had been laying for 28 weeks. One treatment group consisted of 10 hens. The birds were initially fed with the various active ingredients for 4 weeks. The eggs were then collected for the analyses. 3 independent yolk pools were formed from 6 eggs in each case and were deep-frozen until analyzed. Total cholesterol and triglycerides in the yolk were analyzed by enzymatic methods. The analyses were carried out as stated in the handbook "Veterinarmedizinische Laboruntersuchungen fur die Diagnose und Verlaufskontrolle" (1985), 3rd edition, published by Boehringer Mannheim GmbH, Mannheim.
as §7
glycerol+ATP.revreaction.glycerol 3-phosphate+ADP
The resulting ADP is converted by pyruvate kinase (PK) with phosphoenolpyruvate (PEP) back into ATP, with formation of pyruvate. [drawing 6] Pyruvate is hydrogenated to lactate by lactate dehydrogenase (LDH) with NADH, the NADH being oxidized to NAD. [drawing 7]
The amount of NADH consumed during the reaction is equivalent to the amount of glycerol. NADH is the measured variable and can easily be determined from its absorption at Hg 366 nm, Hg 334 nm or 340 nm.
The data were subjected to analysis of variance, and differences between means were ranged by the Duncan test.

cholesterol = conditions: high doses; cited from earlier work

increase for tocotrienols in yolk [1]	detectability in the birds' livers [2]	SMILES	effect on β-tocopherol [1]	effect on the cholesterol content in eggs [3]	Triglycerides, yolk (triglycerides in yolk; 50 mg/kg feed) [mg/g]	Triglycerides, yolk (triglycerides in yolk; 500 mg/kg feed) [mg/g]	Cholesterol, yolk (cholesterol in yolk; 50 mg/kg feed) [mg/g]	Cholesterol, yolk (cholesterol in yolk; 500 mg/kg feed) [mg/g]	trend in yolk cholesterol content (cholesterol in yolk; Example 2)	Cholesterol, plasma (plasma cholesterol) [mg/dL]	Triglycerides, plasma (plasma triglyceride) [mg/dL]	triglyceride content in the yolk [4]	cholesterol-lowering effect (cholesterol)
most pronounced increase	detectable in the birds' livers	CC(C)=CCC/C(C)=C/CC/C(C)=C/CC[C@]1(C)CCc2c(C)c(O)c(C)c(C)c2O1 [α-Tocotrienol, α-tocotrienol]	effect on β-tocopherol only by the α-tocotrienol treatments	no effect	189.9	195.1	9.85	9.45	trend toward reduced cholesterol contents in yolk	130.3	4195	–	–
–	–	O=C(O)c1cccnc1 [nicotinic acid, reference compound]	–	–	–	–	–	–	–	–	–	significantly increased	cholesterol-lowering effect
